Values quoted from earlier work, collected in patent US10507205B2, “Methods of treating opiate dependency and preventing non-oral opiate abuse among opiate addicts” (PURDUE PHARMACEUTICAL PRODUCTS L.P., priority 2006, dated 2019).

Conditions: pronounced first-pass metabolism, 'sometimes less than 5%'

C=CCN1CCC23c4c5ccc(O)c4OC2C(=O)CCC3(O)C1C5 (stereo not shown) [naloxone, Naloxone]
bioavailability of orally administered naloxone: less than 5%
